Laboratory results reported in patent US11564920B2, “5-heteroaryl-1H-pyrazol-3-amine derivative” (Sumitomo Pharma Co., Ltd., priority 2020, dated 2023).
Entries after “also recorded” stand apart in the source; their conditions may differ.

Tests used:
[1] = biological target: hERG current (Homo sapiens (Human), UniProt Q12809); assay: hERG current blocking test; settings: for hERG/CHK1: IC50 of hERG divided by IC50 of CHK1 inhibition of Test Example 1; for IC50: read-out: hERG inhibition IC50, hERG stably expressing CHO cells, Qube384
Method: (§1) The test compounds were added to cultured hERG (human Ether-a-go-go Related Gene) gene stably expressing CHO cell line cells to achieve 0.27 to 100 μM.

[2] = biological target: CYP3A4 (Homo sapiens (Human), UniProt P08684); assay: CYP3A4 MBI and enzyme inactivation clearance evaluation; type: in vitro ADME; settings: human liver microsome; for microsomal CLint: liver microsomes, probe midazolam or testosterone; for Factor of change in IC50 value: by pre-incubation with NADPH, MBI action when 2-fold or greater
Method: The effect and mode of inhibition of the test compound on CYP3A4 were evaluated using a human liver microsome as an enzyme source and midazolam or testosterone as a substrate. […] The IC50 value was calculated from a concentration plot.

[3] = biological target: CHK1 (Homo sapiens (Human), UniProt O14757); assay: CHK1 inhibitory activity test (IMAP TR-FRET); type: biochemical; settings: for inhibition at 0.0001 µM: read-out: CHK1 inhibition % at 0.1 nM; for effect of suppressing CHK1 activity (in words): compared with prexasertib
Method: IMAP TR-FRET Screening Express Kit (R8160) was obtained from Molecular Devices. […] FAM-PKAtide (R7255, Molecular Devices) and FAM-Phospho-PKAtide (R7304, Molecular Devices) were admixed after dilution, and calibration standard systems for phosphorylation levels from 0 to 100% were created. 5 μL of a compound dissolved in a 0.4% DMSO solution was added to a 384 well plate. A compound study group to which 5 μL of each of CHK1, CHK1tide, and ATP was added, and a standard group to which 20 μL of standard was added were created, and subjected to a kinase reaction for 3 hours at 30° C. Subsequently, 60 μL of Binding Reagent (80% Buffer A, 20% Buffer B, 1:600 Binding Reagent, 1:400 Tb-Donor) was added for a binding reaction for 2 hours at room temperature.

[4] = test system: ES-2 cells; assay: Cell growth suppression experiment; type: cell-based; settings: for IC50: Homo sapiens, 48 h, cultured for 2 days, read-out: IC50 (cell growth suppression, ranking); for cell growth suppression effect (in words): compared with prexasertib
Method: ES-2 cells were obtained from the American Type Culture Collection (ATCC). These cells were cultured at 37° C. in the presence of 5% CO2 in a 10% fetal bovine serum, […] penicillin/streptomycin containing McCoy's 5a medium.
500 cells were seeded for each well in a 384-well plate, and the evaluated compound was added so that the final concentration of DMSO would be 0.1% to culture the cells for 2 days. After completion of the culture, the cell viability rate was calculated using CellTiter-Glo® 3D Reagent (Promega, G968B).

[5] = test system: neutrophil count; assay: Measurement of neutrophil count using tumor-bearing mice transplanted with ES-2 cells (Test Example 17); type: in vivo; settings: 30 mg/kg, 14 days, 2 times/week; 96 hours after final administration
Method: Blood was collected 96 hours after the final administration to measure the neutrophil count.
Ratio of residual neutrophils (%)=(neutrophil count of administration group 96 hours after administration)/(neutrophil count of control administration group 96 hours after administration)×100

[6] = biological target: hERG (Homo sapiens (Human), UniProt Q12809); assay: in vitro; settings: CHO cells stably expressing hERG
Sequence of hERG (Q12809 whole entry): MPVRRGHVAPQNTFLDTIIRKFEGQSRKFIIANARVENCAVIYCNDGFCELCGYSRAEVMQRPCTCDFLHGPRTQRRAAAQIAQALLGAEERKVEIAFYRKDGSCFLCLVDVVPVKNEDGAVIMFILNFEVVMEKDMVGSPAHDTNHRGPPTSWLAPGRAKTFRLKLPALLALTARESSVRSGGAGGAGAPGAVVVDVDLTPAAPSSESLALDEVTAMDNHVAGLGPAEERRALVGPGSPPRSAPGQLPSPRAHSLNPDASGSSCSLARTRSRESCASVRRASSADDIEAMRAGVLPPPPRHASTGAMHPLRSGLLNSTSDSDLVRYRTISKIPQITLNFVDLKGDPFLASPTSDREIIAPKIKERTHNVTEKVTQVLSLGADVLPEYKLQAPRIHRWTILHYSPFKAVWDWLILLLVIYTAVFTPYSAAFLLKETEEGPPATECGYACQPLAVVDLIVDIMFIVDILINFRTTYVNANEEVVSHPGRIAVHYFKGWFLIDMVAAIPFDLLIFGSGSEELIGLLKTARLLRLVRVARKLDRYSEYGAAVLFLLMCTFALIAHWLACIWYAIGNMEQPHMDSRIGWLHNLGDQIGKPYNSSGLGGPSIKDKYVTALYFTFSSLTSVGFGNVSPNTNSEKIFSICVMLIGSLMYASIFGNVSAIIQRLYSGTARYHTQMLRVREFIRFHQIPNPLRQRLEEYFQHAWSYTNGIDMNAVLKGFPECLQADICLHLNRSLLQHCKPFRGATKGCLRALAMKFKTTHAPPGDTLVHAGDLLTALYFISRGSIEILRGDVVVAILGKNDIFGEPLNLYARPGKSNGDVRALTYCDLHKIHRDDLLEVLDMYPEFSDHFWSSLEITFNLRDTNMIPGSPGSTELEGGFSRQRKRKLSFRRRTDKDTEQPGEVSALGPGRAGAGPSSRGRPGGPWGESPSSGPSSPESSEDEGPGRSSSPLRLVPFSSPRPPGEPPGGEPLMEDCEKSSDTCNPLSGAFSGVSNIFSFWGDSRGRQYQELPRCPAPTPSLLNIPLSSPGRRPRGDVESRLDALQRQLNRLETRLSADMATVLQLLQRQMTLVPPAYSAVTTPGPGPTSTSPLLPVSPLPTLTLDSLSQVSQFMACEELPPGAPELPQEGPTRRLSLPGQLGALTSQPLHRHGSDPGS
Method: as §1

Sequence of hERG current (Q12809 whole entry): as above
Sequence of CHK1 (O14757 whole entry): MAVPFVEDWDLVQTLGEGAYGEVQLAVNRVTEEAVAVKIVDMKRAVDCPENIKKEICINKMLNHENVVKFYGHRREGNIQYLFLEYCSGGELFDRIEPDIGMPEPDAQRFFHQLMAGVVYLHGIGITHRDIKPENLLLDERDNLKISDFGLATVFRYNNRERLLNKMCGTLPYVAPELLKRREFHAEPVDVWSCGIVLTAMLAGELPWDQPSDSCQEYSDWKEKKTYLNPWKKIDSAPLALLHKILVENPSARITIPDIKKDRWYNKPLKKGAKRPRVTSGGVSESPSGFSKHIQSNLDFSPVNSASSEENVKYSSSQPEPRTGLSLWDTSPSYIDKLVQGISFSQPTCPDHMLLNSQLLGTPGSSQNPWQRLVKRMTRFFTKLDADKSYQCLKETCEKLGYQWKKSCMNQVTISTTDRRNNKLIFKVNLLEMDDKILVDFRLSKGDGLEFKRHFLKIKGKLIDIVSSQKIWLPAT
Sequence of CYP3A4 (P08684 whole entry): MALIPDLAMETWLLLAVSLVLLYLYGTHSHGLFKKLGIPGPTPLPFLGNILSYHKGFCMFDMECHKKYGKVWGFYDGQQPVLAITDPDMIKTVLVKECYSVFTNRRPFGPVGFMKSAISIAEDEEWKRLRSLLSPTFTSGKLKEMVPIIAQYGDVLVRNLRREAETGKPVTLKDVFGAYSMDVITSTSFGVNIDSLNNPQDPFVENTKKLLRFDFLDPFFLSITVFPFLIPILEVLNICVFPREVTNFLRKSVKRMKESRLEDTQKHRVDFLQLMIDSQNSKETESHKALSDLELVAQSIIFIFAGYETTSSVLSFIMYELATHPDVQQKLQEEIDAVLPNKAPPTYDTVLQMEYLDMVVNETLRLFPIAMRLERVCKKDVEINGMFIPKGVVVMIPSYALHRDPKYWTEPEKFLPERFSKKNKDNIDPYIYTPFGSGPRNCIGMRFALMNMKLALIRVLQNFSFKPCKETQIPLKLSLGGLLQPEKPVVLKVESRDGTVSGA

| SMILES | hERG/CHK1 [1] | IC50 [1] [nM] | microsomal CLint [2] [µL/min/mg] | inhibition at 0.0001 µM [3] [%] | IC50 [4] [nM] | effect of suppressing CHK1 activity (in words) [3] | cell growth suppression effect (in words) [4] | Factor of change in IC50 value [2] | Ratio of residual neutrophils [5] [%] | selectivity ratio [6] | IC50 [3] [nM] | inhibition of CYP3A4 based on MBI (in words) [2] |
| --- | --- | --- | --- | --- | --- | --- | --- | --- | --- | --- | --- | --- |
| COc1cncc(OC[C@H]2CNCCO2)c1-c1cc(Nc2cnc(C#N)cn2)n[nH]1 (stereo in doubt) [Example 13, 5-[(5-{3-methoxy-5-[(morpholin-2-yl)methoxy]pyridin-4-yl}-1H-pyrazol-3-yl)amino]pyrazine-2-carbonitrile] | <3649 | < 2700 | 0.484 | 6 | 300 to 1000 |  |  |  |  |  |  |  |
| COc1ccnc(OCCCN)c1-c1cc(Nc2cnc(C(F)(F)F)cn2)n[nH]1 [Example 16, N-{5-[2-(3-aminopropoxy)-4-methoxypyridin-3-yl]-1H-pyrazol-3-yl}-5-(trifluoromethyl)pyrazin-2-amine] | <888 | < 2700 |  | < 5 | 300 to 1000 |  |  |  |  |  |  |  |
| COc1cncc(OC[C@@]2(F)CCNC2)c1-c1cc(Nc2cnc(C#N)cn2)n[nH]1 [Example 22, (R)-5-[(5-{3-[(3-fluoropyrrolidin-3-yl)methoxy]-5-methoxypyridin-4-yl}-1H-pyrazol-3-yl)amino]pyrazine-2-carbonitrile] | 12500 |  | 0.349 | 22 | < 30 | more potent effect of suppressing CHK1 activity than prexasertib | excellent cell growth suppression effect that is equivalent to that of prexasertib |  |  |  |  |  |
| COc1cncc(OC[C@]2(F)CCNC2)c1-c1cc(Nc2cnc(C#N)cn2)n[nH]1 [Example 20, (S)-5-[(5-{3-[(3-fluoropyrrolidin-3-yl)methoxy]-5-methoxypyridin-4-yl}-1H-pyrazol-3-yl)amino]pyrazine-2-carbonitrile] | 11176 |  | 1.11 | 6 | < 30 | more potent effect of suppressing CHK1 activity than prexasertib | excellent cell growth suppression effect that is equivalent to that of prexasertib |  |  |  |  |  |
| COc1cncc(OC[C@@H](F)CN)c1-c1cc(Nc2cnc(C#N)cn2)n[nH]1 [Example 29, 5-[(5-{3-[(2S)-3-amino-2-fluoropropoxy]-5-methoxypyridin-4-yl}-1H-pyrazol-3-yl)amino]pyrazine-2-carbonitrile] | 18667 |  | 0.054 |  | < 30 |  | excellent cell growth suppression effect that is equivalent to that of prexasertib | Not Detected |  |  |  |  |
| Nc1ccn([C@@H]2O[C@H](CO)[C@@H](O)C2(F)F)c(=O)n1 [Gemcitabine] |  |  |  |  |  |  |  |  | 39 |  |  |  |
| COc1nccc(OCC2(CO)CNC2)c1-c1cc(Nc2cnc(C#N)cn2)n[nH]1 [Example 8, 5-{[5-(4-{[3-(hydroxymethyl)azetidin-3-yl]methoxy}-2-methoxypyridin-3-yl)-1H-pyrazol-3-yl]amino}pyrazine-2-carbonitrile] | >1000000 | > 100000 |  | 51 | 30 to 100 | more potent effect of suppressing CHK1 activity than prexasertib; also recorded: especially potently suppressing CHK1 activity |  | Not Detected |  | ≥ 100000 | < 0.1 |  |
| COc1nccc(OCC2(C)CNC2)c1-c1cc(Nc2cnc(C#N)cn2)n[nH]1 [Example 6, 5-[(5-{2-methoxy-4-[(3-methylazetidin-3-yl)methoxy]pyridin-3-yl}-1H-pyrazol-3-yl)amino]pyrazine-2-carbonitrile] |  |  |  | 15 | < 30 | more potent effect of suppressing CHK1 activity than prexasertib | excellent cell growth suppression effect that is equivalent to that of prexasertib |  |  |  |  |  |
| COc1cncc(O[C@H](C)C2(O)CNC2)c1-c1cc(Nc2cnc(C#N)cn2)n[nH]1 [Example 34, 5-[(5-{3-[(1R)-1-(3-hydroxyazetidin-3-yl)ethoxy]-5-methoxypyridin-4-yl}-1H-pyrazol-3-yl)amino]pyrazine-2-carbonitrile] |  |  |  | < 5 | > 1000 |  |  |  |  |  |  |  |
| COc1cncc(OC[C@H](F)CN)c1-c1cc(Nc2cnc(C#N)cn2)n[nH]1 [Example 30, 5-[(5-{3-[(2R)-3-amino-2-fluoropropoxy]-5-methoxypyridin-4-yl}-1H-pyrazol-3-yl)amino]pyrazine-2-carbonitrile] | 40000 |  |  | 28 | < 30 | more potent effect of suppressing CHK1 activity than prexasertib | excellent cell growth suppression effect that is equivalent to that of prexasertib | Not Detected |  |  |  |  |
| COc1cncc(OCC2(C)CNC2)c1-c1cc(Nc2cnc(C#N)cn2)n[nH]1 [Example 25, 5-[(5-{3-methoxy-5-[(3-methylazetidin-3-yl)methoxy]pyridin-4-yl}-1H-pyrazol-3-yl)amino]pyrazine-2-carbonitrile] |  |  |  | < 5 | < 30 |  | excellent cell growth suppression effect that is equivalent to that of prexasertib |  |  |  |  |  |
| COc1cncc(OCC[C@@H](C)N)c1-c1cc(Nc2cnc(C#N)cn2)n[nH]1 [Example 9, 5-[(5-{3-[(3R)-3-aminobutoxy]-5-methoxypyridin-4-yl}-1H-pyrazol-3-yl)amino]pyrazine-2-carbonitrile] |  |  |  | 24 | 30 to 100 | more potent effect of suppressing CHK1 activity than prexasertib |  |  |  |  |  |  |
| COc1cncc(OC[C@H](C)CN)c1-c1cc(Nc2cnc(C#N)cn2)n[nH]1 [Example 28] |  |  |  | < 5 | < 30 |  |  |  |  |  |  |  |
| COc1cncc(OC[C@@H]2CNCCO2)c1-c1cc(Nc2cnc(C#N)cn2)n[nH]1 (stereo in doubt) [Example 12, 5-[(5-{3-methoxy-5-[(morpholin-2-yl)methoxy]pyridin-4-yl}-1H-pyrazol-3-yl)amino]pyrazine-2-carbonitrile] | 9118 |  | 0.287 | 21 | 100 to 300 | more potent effect of suppressing CHK1 activity than prexasertib |  |  |  |  |  |  |
| COc1ccnc(OCC2(CN)CC2)c1-c1cc(Nc2cnc(C#N)cn2)n[nH]1 [Example 37, 5-{[5-(2-{[1-(aminomethyl)cyclopropyl]methoxy}-4-methoxypyridin-3-yl)-1H-pyrazol-3-yl]amino}pyrazine-2-carbonitrile] | <8438 | < 2700 |  | 18 | < 30 | more potent effect of suppressing CHK1 activity than prexasertib | excellent cell growth suppression effect that is equivalent to that of prexasertib | Not Detected |  |  |  | do not exhibit inhibition of CYP3A4 based on MBI |
| COc1ncnc(OCCCN)c1-c1cc(Nc2cnc(C#N)cn2)n[nH]1 [Example 17, 5-({5-[4-(3-aminopropoxy)-6-methoxypyrimidin-5-yl]-1H-pyrazol-3-yl}amino)pyrazine-2-carbonitrile] |  |  |  | 24 | < 30 | more potent effect of suppressing CHK1 activity than prexasertib | excellent cell growth suppression effect that is equivalent to that of prexasertib |  |  |  | 0.3 |  |
| COc1nccc(OCCCN)c1-c1cc(Nc2cnc(C#N)cn2)n[nH]1 [Example 4, 5-({5-[4-(3-aminopropoxy)-2-methoxypyridin-3-yl]-1H-pyrazol-3-yl}amino)pyrazine-2-carbonitrile] |  |  |  | 25 | < 30 | more potent effect of suppressing CHK1 activity than prexasertib | excellent cell growth suppression effect that is equivalent to that of prexasertib |  |  |  |  |  |
